Data from patent US9849104B2 (Gemphire Therapuetics Inc., priority 2015, dated 2017).
Read-outs that look alike come from different tables or passages of the source.

Columns and labels:
[1] = tested on: STAM model of non-alcoholic steatohepatitis (NASH)
Protocol: Telmisartan (Micardis®) was purchased from Boehringer Ingelheim GmbH (Germany) and dissolved in pure water.
Telmisartan was administered at a dose of 10 mg/kg once daily.
Eight-hour fasting blood glucose was measured in whole blood using Life Check (EIDIA Co. Ltd., Japan). For plasma biochemistry, eight-hour fasting blood was collected in polypropylene tubes with anticoagulant (Novo-Heparin, Mochida Pharmaceutical, Japan) and centrifuged at 1,000×g for 15 minutes at 4° C. The supernatant was collected and stored at −80° C. until use. Plasma insulin levels were quantified by Ultra Sensitive Mouse Insulin ELISA kit (Morinaga Institute of Biological Science, Inc., Japan).
On the day of termination, non-fasting blood glucose was measured in whole blood using Life Check. For plasma biochemistry, non-fasting blood was collected in polypropylene tubes with anticoagulant (Novo-Heparin) and centrifuged at 1,000×g for 15 minutes at 4° C. The supernatant was collected and stored at −80° C. until use. Plasma ALT, AST, ALP, GGT, BUN, creatinine and total bilirubin levels were measured by FUJI DRI-CHEM 7000 (Fujifilm Corporation, Japan). Plasma ketone body levels were quantified by EnzyChrom™ Ketone Body Assay Kit (BioAssay Systems, USA).
Liver samples were homogenized in chloroform-methanol (2:1, v/v) and incubated overnight at room temperature. After washing with chloroform-methanol-water (8:4:3, v/v/v), the extracts were evaporated to dryness, and dissolved in isopropanol. Liver triglyceride content was measured by Triglyceride E-test (Wako Pure Chemical Industries). […]
Statistical analyses were performed using Bonferroni Multiple Comparison Test on GraphPad Prism 6 (GraphPad Software Inc., USA). […] Results were expressed as mean±SD.
The viability, clinical signs and behavior were monitored daily. Body weight was recorded before the treatment. […] The animals were sacrificed by exsanguinations through direct cardiac puncture under isoflurane anesthesia (Pfizer Inc.) at 9 weeks of age.

[2] = Musculoskeletal adverse events, study A4141001; format: in vivo, human
[3] = male, Wistar, rat, in vivo, po, 10 mg/kg
Protocol: Dose solution was prepared by dissolving labeled drug in 0.45 mL ethanol and 4.05 mL 0.5% methylcellulose in water. […] Final specific activity of dose solution was 10.37 μCi/mg.
Male Wistar rats with an average weight of 202 g were fasted overnight prior to dosing. […] Carcasses were rapidly frozen in dry ice/hexane mixture and prepared for whole body sectioning and autoradiography. Sections of 50 μm thickness were air dried at −20° C. and applied to BioMax scientific imaging film (Eastman Kodak, Rochester, N.Y.) or phosphor imaging plates for autoradiographic exposure (Molecular Dynamics, Sunnyvale, Calif.). Carbon-14 standards (American Radiolabeled Chemicals, St. Louis) were included on representative films and plates for calibration of the analyzer. Processed films were digitized with the analyzer scanner (Loats INQUIRY image analysis system, Loats Associates, Westminster, Md.), and radioactivity remaining in tissues was determined by quantitative video densitometric analysis of digital images. Imaging plates were scanned after 1-week exposure. Resulting electronic images were used for preliminary evaluation of distribution.

[4] = A4141001, patient type IIa + IIb

Q: Which results are given for `CCCc1nc2c(C)cc(-c3nc4ccccc4n3C)cc2n1Cc1ccc(-c2ccccc2C(=O)O)cc1` [Telmisartan, reference compound]?
A: NAFLD Activity score, NAS (mean ± SD) ([1]; STAM NASH mice, 10 mg/kg PO QD 6-9 wks, 10 mg/kg): significant reduction; mortality during the treatment period ([1]; STAM NASH mice, 10 mg/kg PO QD, before reaching Day 21): one mouse was found dead; Fasting blood glucose (mean ± SD) ([1]; STAM NASH mice, 10 mg/kg PO QD, Day 18, 8 hours of fasting, listed as telemisartan, 10 mg/kg): significant increase; Liver triglyceride (mean ± SD) ([1]; STAM NASH mice, 10 mg/kg PO QD, Day 21, listed as telemisartan, 10 mg/kg): significant decrease; Non-fasting blood glucose (mean ± SD) ([1]; STAM NASH mice, 10 mg/kg PO QD, termination (Day 21), listed as telemisartan, 10 mg/kg): significant increase; fibrosis area compared with the Vehicle in NASH group ([1]; STAM NASH mice, all treatment groups (gemcabene 30, 100, 300 mg/kg; telmisartan 10 mg/kg)): significantly decreased; Plasma ALP (mean ± SD) ([1]; mouse, in vivo, po, 10 mg/kg): significant increases; Plasma BUN (mean ± SD) ([1]; mouse, in vivo, po, 10 mg/kg): significant increase; Plasma GGT (mean ± SD) ([1]; mouse, in vivo, po, 10 mg/kg): 1 ± 0 U/L; Plasma creatinine (mean ± SD) ([1]; mouse, in vivo, po, 10 mg/kg): 0.1 ± 0.0 mg/dL

Q: For `CC(C)c1c(C(=O)Nc2ccccc2)c(-c2ccccc2)c(-c2ccc(F)cc2)n1CC[C@@H](O)C[C@@H](O)CC(=O)O` [Atorvastatin, reference compound], which “% = the percent of patients experiencing a musculoskeletal adverse event” value (“% = the percent” for short) ([2]; A4141001, patient type IIa) is on record?
A: Its value is 9.1%.

Q: What about the “No = the number of muscle skeletal adverse events” value (from here on “No = the number”) ([2]; A4141001, patient type IIa) of the same compound?
A: The value was 2.

Q: And the “% = the percent” value [2, 4]?
A: Its value is 13.5%.

Q: And the “No = the number” value [2, 4]?
A: Its value is 7.

Q: And the “% = the percent” value ([2]; A4141001, patient type IIb)?
A: The value was 16.7%.

Q: And the “No = the number” value ([2]; A4141001, patient type IIb)?
A: The value was 5.

Q: What does the source list for `CC(C)(CCCCOCCCCC(C)(C)C(=O)O)C(=O)O` [[14C] gemcabene]?
A: radioequivalents remaining in Adrenal ([3]; 1 h): 6.05 μg equivalents/g; radioequivalents remaining in Blood ([3]; 1 h): 15.46 μg equivalents/g; radioequivalents remaining in Brain ([3]; 1 h): 0.41 μg equivalents/g; radioequivalents remaining in Kidney ([3]; 1 h): 18.75 μg equivalents/g; radioequivalents remaining in Liver ([3]; 1 h): 35.78 μg equivalents/g; radioequivalents remaining in Lung ([3]; 1 h): 11.69 μg equivalents/g; radioequivalents remaining in Muscle ([3]; 1 h): 1.35 μg equivalents/g; radioequivalents remaining in Adrenal ([3]; 4 h): 4.76 μg equivalents/g; radioequivalents remaining in Blood ([3]; 4 h): 13.65 μg equivalents/g; radioequivalents remaining in Brain ([3]; 4 h): 0.47 μg equivalents/g; radioequivalents remaining in Kidney ([3]; 4 h): 17.84 μg equivalents/g; radioequivalents remaining in Liver ([3]; 4 h): 37.08 μg equivalents/g; radioequivalents remaining in Lung ([3]; 4 h): 10.15 μg equivalents/g; radioequivalents remaining in Muscle ([3]; 4 h): 1.40 μg equivalents/g; radioequivalents remaining in Adrenal ([3]; 8 h): 4.29 μg equivalents/g; radioequivalents remaining in Blood ([3]; 8 h): 9.75 μg equivalents/g; radioequivalents remaining in Brain ([3]; 8 h): 0.43 μg equivalents/g; radioequivalents remaining in Kidney ([3]; 8 h): 16.44 μg equivalents/g; radioequivalents remaining in Liver ([3]; 8 h): 27.42 μg equivalents/g; radioequivalents remaining in Lung ([3]; 8 h): 7.59 μg equivalents/g; radioequivalents remaining in Muscle ([3]; 8 h): 0.99 μg equivalents/g; radioequivalents remaining in Adrenal ([3]; 24 h): 1.42 μg equivalents/g; radioequivalents remaining in Blood ([3]; 24 h): 4.69 μg equivalents/g; radioequivalents remaining in Brain ([3]; 24 h): 0.24 μg equivalents/g; radioequivalents remaining in Kidney ([3]; 24 h): 17.45 μg equivalents/g; radioequivalents remaining in Liver ([3]; 24 h): 24.35 μg equivalents/g; radioequivalents remaining in Lung ([3]; 24 h): 3.58 μg equivalents/g; radioequivalents remaining in Muscle ([3]; 24 h): 0.45 μg equivalents/g; radioequivalents remaining in Adrenal ([3]; 48 h): 0.22 μg equivalents/g; radioequivalents remaining in Blood ([3]; 48 h): 0.44 μg equivalents/g; radioequivalents remaining in Kidney ([3]; 48 h): 7.23 μg equivalents/g; radioequivalents remaining in Liver ([3]; 48 h): 3.64 μg equivalents/g; radioequivalents remaining in Lung ([3]; 48 h): 0.36 μg equivalents/g; radioequivalents remaining in Kidney ([3]; 96 h): 0.83 μg equivalents/g; radioequivalents remaining in Liver ([3]; 96 h): 0.24 μg equivalents/g
